Measurements reported in US20260207565A1, “COMPOUNDS THAT INHIBIT PKMYT1” (Exelixis, Inc., priority 2022, published 2026).
pIC50: −log10 of the molar value.

How the values were obtained:
[1] = system: phosphorylation of CDK1 at Thr14 in HCC1806 cells; test: Cell lysate AlphaLISA assay measuring inhibition of phosphorylation of CDK1 Thr14; type: cell-based; settings: Homo sapiens, HCC1806, 4 h, compounds incubated 4 hours, AlphaLISA SureFire Ultra CDK1 Thr14, read-out: Cellular IC50
Protocol: (§1) Biochemical IC50 values were determined via ADP-Glo™ assay. Cellular IC50 values were determined via AlphaLISA assay.
Cell lysate AlphaLISA® assay measuring inhibition of phosphorvlation of CDK1 Thr14. Inhibition of phosphorylation of CDK1 at Thr14 was determined using AlphaLISAn SureFire® Ultra™ Kit from Perkin Elmer (ALSU-PCDK1-A10K). HCC1806 cells were seeded at 2K cells per well (50 μl/well) in 384-well plates (Corning 3570) and stored overnight at 37° C. and 5% CO2. The following day, the compounds dissolved in DMSO were introduced to the cells and incubated for 4 hours at 37° C. and 5% CO2. The cells were then washed with PBS using Blue® Washer and 10 μl of lysis buffer containing protease inhibitor was added. The plate was placed on an orbital shaker (at 4° C.) for 30 minutes and stored overnight at −80° C. for complete lysing. The next day, the plates were thawed at room temperature for at least 30 min. Reagents were prepared in a dimmed light setting (<100 lumens). The assay was run by first adding 5 μl of the acceptor mix (reaction buffer 1: reaction buffer 2:activation buffer:acceptor beads 47:47:4:2), covering the plate with foil, shaking for 2 minutes, and incubating at RT for 60 minutes. The donor mix (dilution buffer:donor beads 47:3) was then added at 5 μl per well, placed on the shaker for 2 minutes and incubated at RT for 60 minutes before reading the plates on a PHERAstar® plate reader. The results were normalized to DMSO (0% Inhibition) and 3 μM of reference compound.

PKMYT1 = target: T1, PKMYT1 (Homo sapiens, UniProt Q99640); test: ADP-Glo PKMYT1 ATP-depletion assay; settings: 50 nM PKMYT1, 13.3 nM CDK1, 88 μM ATP, 120 minutes at RT, read-out: Biochemical IC50
T1 construct: PKMYT1 (93 kD, full length, N-terminal GST tag from Signal Chem); GST (N); purchased Signal Chem
T1 sequence (Q99640 1-499): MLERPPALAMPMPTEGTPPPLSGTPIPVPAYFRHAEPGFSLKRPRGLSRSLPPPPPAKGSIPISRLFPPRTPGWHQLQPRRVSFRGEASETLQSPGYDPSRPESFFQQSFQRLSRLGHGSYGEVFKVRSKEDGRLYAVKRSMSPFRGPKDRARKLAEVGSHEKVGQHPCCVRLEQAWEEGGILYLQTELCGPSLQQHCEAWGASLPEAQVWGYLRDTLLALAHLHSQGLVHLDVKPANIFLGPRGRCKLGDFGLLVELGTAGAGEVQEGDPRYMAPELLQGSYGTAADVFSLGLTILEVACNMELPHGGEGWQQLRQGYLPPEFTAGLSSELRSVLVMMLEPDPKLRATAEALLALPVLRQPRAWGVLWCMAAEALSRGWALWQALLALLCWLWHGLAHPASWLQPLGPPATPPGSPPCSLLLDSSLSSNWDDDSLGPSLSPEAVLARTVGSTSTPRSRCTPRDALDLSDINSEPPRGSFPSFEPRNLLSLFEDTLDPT
Protocol: as §1
ADP-Glo™ PKMYT1 ATP-depletion assay. The activity of PKMYT1 is measured using a luciferase-luciferin based ATP detection reaction to quantify ATP depletion resulting from kinase-catalyzed phosphoryl transfer to CDK1 or autophosphorylation of PKMYT1. The ADP generated as a byproduct of the reaction is converted to ATP and used to drive a luciferase reaction. Test compounds were dissolved in DMSO and dispensed into Corning 3824 384-well plates prior to the experiment such that the final DMSO concentration was <10%. To the compounds was added 3 μL of PKMYT1 (93 kD, full length, N-terminal GST tag from Signal Chem). The reaction was started by the addition of 2 μL of CDK1 (58 kDa, full length, N-terminal GST tag from Signal Chem) and ATP in assay buffer (50 mM Hepes, 40 mM NaCl, 10 mM MgCl2, 1 mM DTT, 0.1 mg/mL BSA, 2.5 mM MnCl2). Final assay concentrations were 50 nM PKMYT1, 13.3 nM CDK1, and 88 μM ATP. Plates were centrifuged for 1 minute at 1000 RPM and incubated at RT for 120 minutes. After the incubation period, ADP-Glo™ reagent was added and the plates were incubated for another 40 minutes before finally adding the kinase detection reagent, 30 minutes after the addition, plates were placed on a PHERAstar® plate reader and read using the Luminescence Protocol, integration time at 0.5 seconds.

SMILES | pIC50 [1] | pIC50 (PKMYT1)
CCn1cc(-c2cn[nH]c2)c2c(-c3c(C)ccc(O)c3C)cc(C(N)=O)nc21 (single isomer, unassigned) [Compound 69, (P)-1-Ethyl-4-(3-hydroxy-2,6-dimethylphenyl)-3-(1H-pyrazol-4-yl)-1H-pyrrolo[2,3-b]pyridine-6-carboxamide] | > 7.30 | > 7.30
Cc1ccc(O)c(C)c1-c1c(N)c(C(N)=O)nc2c1ncn2C1CC1 (single isomer, unassigned) [Compound 77, (P)-6-amino-3-cyclopropyl-7-(3-hydroxy-2,6-dimethylphenyl)-3H-imidazo[4,5-b]pyridine-5-carboxamide] | > 7.30 | > 7.30
CCn1cc(C#N)c2c(-c3c(C)ccc(O)c3C)cc(C(N)=O)nc21 (single isomer, unassigned) [Compound 79] | > 7.30 | > 7.30
CCn1cc(C#N)c2c(-c3ccc(C)c(O)c3C)c(N)c(C(N)=O)nc21 (single isomer, unassigned) [Compound 82, (M)-5-amino-3-cyano-1-ethyl-4-(3-hydroxy-2,4-dimethylphenyl)-1H-pyrrolo[2,3-b]pyridine-6-carboxamide] | > 7.30 | > 7.30
Cc1ccc(O)c(C)c1-c1c(N)c(C(N)=O)nc2c1ncn2C(C)C (single isomer, unassigned) [Compound 83, (P)-6-amino-7-(3-hydroxy-2,6-dimethylphenyl)-3-isopropyl-3H-imidazo[4,5-b]pyridine-5-carboxamide] | > 7.30 | > 7.30
Cc1ccc(O)c(C)c1-c1c(N)c(C(N)=O)nc2c1nc(C)n2C(C)C (single isomer, unassigned) [Compound 84, (P)-6-amino-7-(3-hydroxy-2,6-dimethylphenyl)-3-isopropyl-2-methyl-3H-imidazo[4,5-b]pyridine-5-carboxamide] | > 7.30 | > 7.30
Cc1ccc(O)c(C)c1-c1c(N)c(C(N)=O)nc2c1ncn2C [Compound 1, 6-Amino-7-(3-hydroxy-2,6-dimethylphenyl)-3-methyl-3H-imidazo[4,5-b]pyridine-5-carboxamide] | 6.30 to 7.30 | > 7.30
Cn1cc(C#N)c2c(-c3cccc(O)c3)c(N)c(C(N)=O)nc21 [Compound 7, 5-Amino-3-cyano-4-(3-hydroxyphenyl)-1-methyl-1H-pyrrolo[2,3-b]pyridine-6-carboxamide] | 6.30 to 7.30 | > 7.30
Cc1c(F)cncc1-c1c(N)c(C(N)=O)nc2c1c(C#N)cn2C [Compound 8, 5-Amino-3-cyano-4-(5-fluoro-4-methylpyridin-3-yl)-1-methyl-1H-pyrrolo[2,3-b]pyridine-6-carboxamide] | 6.30 to 7.30 | > 7.30
Cc1c(O)cccc1-c1c(N)c(C(N)=O)nc2c1c(C#N)c(C)n2C [Compound 9, 5-amino-3-cyano-4-(3-hydroxy-2-methylphenyl)-1,2-dimethyl-1H-pyrrolo[2,3-b]pyridine-6-carboxamide] | 6.30 to 7.30 | > 7.30
Cc1c(Cl)cncc1-c1c(N)c(C(N)=O)nc2c1c(C#N)c(C)n2C [Compound 12] | 6.30 to 7.30 | > 7.30
Cc1ccc(O)c(C)c1-c1c(N)c(C(N)=O)nc2c1c(C#N)cn2C [Compound 13] | > 7.30 | > 7.30
Cc1c(O)cccc1-c1c(N)c(C(N)=O)nc2c1c(C#N)c(C)n2CC(F)(F)F [Compound 14] | > 7.30 | > 7.30
Cc1ccc(O)c(C)c1-c1c(N)c(C(N)=O)cc2c1nc(C)n2C [Compound 15, 5-amino-4-(3-hydroxy-2,6-dimethylphenyl)-1,2-dimethyl-1H-benzo[d]imidazole-6-carboxamide] | 6.00 to 6.30 | > 7.30
Cc1ccc(O)c(C)c1-c1cc(C(N)=O)nc2cn[nH]c12 [Compound 16, 7-(3-hydroxy-2,6-dimethylphenyl)-1H-pyrazolo[4,3-b]pyridine-5-carboxamide] | ≤ 5.30 | 5.30 to 6.00
Cc1ccc(O)c(C)c1-c1cc(C(N)=O)nc2c1cnn2C [Compound 17, 4-(3-hydroxy-2,6-dimethylphenyl)-1-methyl-pyrazolo[3,4-b]pyridine-6-carboxamide] | ≤ 5.30 | 5.30 to 6.00
Cc1ccc(O)c(C)c1-c1cc(C(N)=O)nc2cnn(C)c12 [Compound 18, 7-(3-hydroxy-2,6-dimethylphenyl)-1-methyl-pyrazolo[4,3-b]pyridine-5-carboxamide] | ≤ 5.30 | 5.30 to 6.00
CNC(=O)c1cc(-c2c(C)ccc(O)c2C)c2[nH]ncc2n1 [Compound 19, 7-(3-hydroxy-2,6-dimethylphenyl)-N-methyl-1H-pyrazolo[4,3-b]pyridine-5-carboxamide] | ≤ 5.30 | ≤ 5.30
Cc1ccc(O)c(C)c1-c1cc(C(=O)N(C)C)nc2cn[nH]c12 [Compound 20] | ≤ 5.30 | ≤ 5.30
Cc1ccc(O)c(C)c1-c1cc(C(N)=O)nc2c1ccn2C [Compound 21, 4-(3-hydroxy-2,6-dimethylphenyl)-1-methyl-pyrrolo[2,3-b]pyridine-6-carboxamide] | ≤ 5.30 | 6.00 to 6.30
Cc1ccc(O)c(C)c1-c1cc(C(N)=O)nc2c1c(C#N)cn2C [Compound 22, 3-cyano-4-(3-hydroxy-2,6-dimethylphenyl)-1-methyl-pyrrolo[2,3-b]pyridine-6-carboxamide] | 6.30 to 7.30 | > 7.30
Cc1ccc(O)c(C)c1-c1cc(C(N)=O)nc2c1c(Br)cn2C [Compound 24] | 5.30 to 6.00 | 6.30 to 7.30
Cc1c(O)cccc1-c1cc(C(N)=O)nc2c1c(C#N)cn2C [Compound 28, 3-cyano-4-(3-hydroxy-2-methylphenyl)-1-methyl-pyrrolo[2,3-b]pyridine-6-carboxamide] | 6.00 to 6.30 | 6.30 to 7.30
CCn1cc(C#N)c2c(-c3c(C)ccc(O)c3C)cc(C(N)=O)nc21 [Compound 29, 3-cyano-1-ethyl-4-(3-hydroxy-2,6-dimethylphenyl)pyrrolo[2,3-b]pyridine-6-carboxamide] | > 7.30 | > 7.30
Cc1ccc(O)c(C)c1-c1cc(C(N)=O)cc2c1cnn2C [Compound 35, 4-(3-hydroxy-2,6-dimethylphenyl)-1-methyl-indazole-6-carboxamide] | ≤ 5.30 | 5.30 to 6.00
Cc1ccc(O)c(C)c1-c1cc(C(N)=O)cc2nn(C)cc12 [Compound 36, 4-(3-hydroxy-2,6-dimethylphenyl)-2-methyl-indazole-6-carboxamide] | ≤ 5.30 | 5.30 to 6.00
Cc1ccc(O)c(C)c1-c1cc(C(N)=O)cc2cn[nH]c12 [Compound 37, 7-(3-hydroxy-2,6-dimethylphenyl)-1H-indazole-5-carboxamide] | 5.30 to 6.00 | 5.30 to 6.00
CNC(=O)c1cc(-c2c(C)ccc(O)c2C)c2[nH]ncc2c1 [Compound 38] | 5.30 to 6.00 | ≤ 5.30
Cc1ccc(O)c(C)c1-c1cc(C(=O)N(C)C)cc2cn[nH]c12 [Compound 39] | 5.30 to 6.00 | ≤ 5.30
Cc1ccc(O)c(C)c1-c1cc(C(N)=O)cc2cnn(C)c12 [Compound 40, 7-(3-hydroxy-2,6-dimethylphenyl)-1-methyl-indazole-5-carboxamide] | ≤ 5.30 | ≤ 5.30
